What was measured:
[1] = compound: CCc1cnn2c(NCc3ccc[n+]([O-])c3)cc(N3CCCC[C@H]3CCO)nc12; test: GR value, 72 h; higher = faster growth (1 = untreated, <0 = killing);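 note: breast cancer and non-malignant breast epithelial lines, nine half-log doses, viable cells counted by Hoechst and LIVE/DEAD dye imaging versus time-zero plates and DMSO controls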
THZ1 = compound: CN(C)C/C=C/C(=O)Nc1ccc(C(=O)Nc2cccc(Nc3ncc(Cl)c(-c4c[nH]c5ccccc45)n3)c2)cc1 [THZ1]; test: as above
BSJ-03-123 = compound: CC(=O)c1c(C)c2cnc(Nc3ccc(N4CCN(CCOCCOCCOCCNC(=O)COc5cccc6c5C(=O)N(C5CCC(=O)NC5=O)C6=O)CC4)cn3)nc2n(C2CCCC2)c1=O [BSJ-03-123]; test: as above
[2] = compound: CCN1CCN(Cc2ccc(Nc3ncc(F)c(-c4cc(F)c5nc(C)n(C(C)C)c5c4)n3)nc2)CC1; test: as above
Flavopiridol [3] = compound: T1, CN1CC[C@H](c2c(O)cc(O)c3c(=O)cc(-c4ccccc4Cl)oc23)[C@H](O)C1 [Flavopiridol]; test: as above
LEE011/Ribociclib [4] = compound: T2, CN(C)C(=O)c1cc2cnc(Nc3ccc(N4CCNCC4)cn3)nc2n1C1CCCC1 [LEE011/Ribociclib]; test: as above
[5] = compound: CC(=O)c1c(C)c2cnc(Nc3ccc(N4CCNCC4)cn3)nc2n(C2CCCC2)c1=O; test: as above
Neratinib/HKI272 = compound: CCOc1cc2ncc(C#N)c(Nc3ccc(OCc4ccccn4)c(Cl)c3)c2cc1NC(=O)/C=C/CN(C)C [Neratinib/HKI272]; test: as above
[6] = compound: CCN1CCN(Cc2ccc(Nc3ncc(F)c(-c4cc(F)c5nc(C)n(C(C)C)c5c4)n3)nc2)CC1; test: increase in dead-cell fraction, 72 h; higher = more death;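 note: breast cancer cell lines in 384-well plates, stained with Hoechst plus LIVE/DEAD far red dye and imaged, cells above an LDR intensity threshold counted dead, Hoechst-negative corpses included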
Flavopiridol [7] = compound: T1, Flavopiridol; test: as above
LEE011/Ribociclib [8] = compound: T2, LEE011/Ribociclib; test: as above
[9] = compound: CC(=O)c1c(C)c2cnc(Nc3ccc(N4CCNCC4)cn3)nc2n(C2CCCC2)c1=O; test: as above

MDAMB231
GR value ([1]; 0.0001 µM): 0.921 GR
GR value ([1]; 0.0003162 µM): 0.995 GR
GR value ([1]; 0.001 µM): 0.966 GR
GR value ([1]; 0.003162 µM): 0.93 GR
GR value ([1]; 0.01 µM): 0.51 GR
GR value ([1]; 0.03162 µM): -0.288 GR
GR value ([1]; 0.1 µM): -0.361 GR
GR value ([1]; 0.3162 µM): -0.372 GR
GR value ([1]; 1 µM): -0.426 GR
GR value (THZ1; 0.0001 µM): 1.02 GR
GR value (THZ1; 0.0003162 µM): 0.992 GR
GR value (THZ1; 0.001 µM): 0.993 GR
GR value (THZ1; 0.003162 µM): 1.03 GR
GR value (THZ1; 0.01 µM): 0.972 GR
GR value (THZ1; 0.03162 µM): 0.701 GR
GR value (THZ1; 0.1 µM): 0.26 GR
GR value (THZ1; 0.3162 µM): -0.0565 GR
GR value (THZ1; 1 µM): -0.5 GR
GR value (BSJ-03-123; 0.001 µM): 0.926 GR
GR value (BSJ-03-123; 0.003162 µM): 0.889 GR
GR value (BSJ-03-123; 0.01 µM): 0.828 GR
GR value (BSJ-03-123; 0.03162 µM): 0.779 GR
GR value (BSJ-03-123; 0.1 µM): 0.69 GR
GR value (BSJ-03-123; 0.3162 µM): 0.644 GR
GR value (BSJ-03-123; 1 µM): 0.466 GR
GR value (BSJ-03-123; 3.162 µM): 0.478 GR
GR value (BSJ-03-123; 10 µM): -0.156 GR
GR value ([2]; 0.001 µM): 0.942 GR
GR value ([2]; 0.003162 µM): 0.859 GR
GR value ([2]; 0.01 µM): 0.699 GR
GR value ([2]; 0.03162 µM): 0.513 GR
GR value ([2]; 0.1 µM): 0.289 GR
GR value ([2]; 0.3162 µM): 0.169 GR
GR value ([2]; 1 µM): 0.0774 GR
GR value ([2]; 3.162 µM): -0.187 GR
GR value ([2]; 10 µM): -0.492 GR
GR value (Flavopiridol [3]; 0.0001 µM): 1.02 GR
GR value (Flavopiridol [3]; 0.0003162 µM): 1.03 GR
GR value (Flavopiridol [3]; 0.001 µM): 1 GR
GR value (Flavopiridol [3]; 0.003162 µM): 0.886 GR
GR value (Flavopiridol [3]; 0.01 µM): 0.858 GR
GR value (Flavopiridol [3]; 0.03162 µM): 0.866 GR
GR value (Flavopiridol [3]; 0.1 µM): 0.656 GR
GR value (Flavopiridol [3]; 0.3162 µM): 0.152 GR
GR value (Flavopiridol [3]; 1 µM): -0.434 GR
GR value (LEE011/Ribociclib [4]; 0.001 µM): 0.792 GR
GR value (LEE011/Ribociclib [4]; 0.003162 µM): 0.835 GR
GR value (LEE011/Ribociclib [4]; 0.01 µM): 0.747 GR
GR value (LEE011/Ribociclib [4]; 0.03162 µM): 0.762 GR
GR value (LEE011/Ribociclib [4]; 0.1 µM): 0.673 GR
GR value (LEE011/Ribociclib [4]; 0.3162 µM): 0.617 GR
GR value (LEE011/Ribociclib [4]; 1 µM): 0.569 GR
GR value (LEE011/Ribociclib [4]; 3.162 µM): 0.466 GR
GR value (LEE011/Ribociclib [4]; 10 µM): 0.215 GR
GR value ([5]; 0.0003162 µM): 1.08 GR
GR value ([5]; 0.001 µM): 1.02 GR
GR value ([5]; 0.003162 µM): 0.921 GR
GR value ([5]; 0.01 µM): 0.824 GR
GR value ([5]; 0.03162 µM): 0.637 GR
GR value ([5]; 0.1 µM): 0.494 GR
GR value ([5]; 0.3162 µM): 0.418 GR
GR value ([5]; 1 µM): 0.288 GR
GR value ([5]; 3.162 µM): 0.202 GR
GR value (Neratinib/HKI272; 0.0003162 µM): 1.03 GR
GR value (Neratinib/HKI272; 0.001 µM): 0.999 GR
GR value (Neratinib/HKI272; 0.003162 µM): 0.978 GR
GR value (Neratinib/HKI272; 0.01 µM): 1.05 GR
GR value (Neratinib/HKI272; 0.03162 µM): 1.03 GR
GR value (Neratinib/HKI272; 0.1 µM): 1.01 GR
GR value (Neratinib/HKI272; 0.3162 µM): 0.917 GR
GR value (Neratinib/HKI272; 1 µM): 0.688 GR
GR value (Neratinib/HKI272; 3.162 µM): -0.0968 GR
increase in dead-cell fraction ([6]; 0.001 µM): 0.0075
increase in dead-cell fraction ([6]; 0.003162 µM): 0.0028
increase in dead-cell fraction ([6]; 0.01 µM): 0.0023
increase in dead-cell fraction ([6]; 0.03162 µM): 0.0037
increase in dead-cell fraction ([6]; 0.1 µM): 0.0398
increase in dead-cell fraction ([6]; 0.3162 µM): 0.0474
increase in dead-cell fraction ([6]; 1 µM): 0.12
increase in dead-cell fraction ([6]; 3.162 µM): 0.366
increase in dead-cell fraction ([6]; 10 µM): 0.68
increase in dead-cell fraction (Flavopiridol [7]; 0.0001 µM): -0.0026
increase in dead-cell fraction (Flavopiridol [7]; 0.0003162 µM): -0.0012
increase in dead-cell fraction (Flavopiridol [7]; 0.001 µM): 0.002
increase in dead-cell fraction (Flavopiridol [7]; 0.003162 µM): 0.0006
increase in dead-cell fraction (Flavopiridol [7]; 0.01 µM): -0.0004
increase in dead-cell fraction (Flavopiridol [7]; 0.03162 µM): -0.0008
increase in dead-cell fraction (Flavopiridol [7]; 0.1 µM): 0.0005
increase in dead-cell fraction (Flavopiridol [7]; 0.3162 µM): 0.0405
increase in dead-cell fraction (Flavopiridol [7]; 1 µM): 0.485
increase in dead-cell fraction (LEE011/Ribociclib [8]; 0.001 µM): -0.0007
increase in dead-cell fraction (LEE011/Ribociclib [8]; 0.003162 µM): -0.0028
increase in dead-cell fraction (LEE011/Ribociclib [8]; 0.01 µM): 0.0009
increase in dead-cell fraction (LEE011/Ribociclib [8]; 0.03162 µM): -0.0021
increase in dead-cell fraction (LEE011/Ribociclib [8]; 0.1 µM): 0.0045
increase in dead-cell fraction (LEE011/Ribociclib [8]; 0.3162 µM): 0.005
increase in dead-cell fraction (LEE011/Ribociclib [8]; 1 µM): 0.0045
increase in dead-cell fraction (LEE011/Ribociclib [8]; 3.162 µM): 0.0025
increase in dead-cell fraction (LEE011/Ribociclib [8]; 10 µM): 0.014
increase in dead-cell fraction ([9]; 0.0003162 µM): -0.0007
increase in dead-cell fraction ([9]; 0.001 µM): 0.0057
increase in dead-cell fraction ([9]; 0.003162 µM): -0.0035
increase in dead-cell fraction ([9]; 0.01 µM): -0.0069
increase in dead-cell fraction ([9]; 0.03162 µM): -0.0054
increase in dead-cell fraction ([9]; 0.1 µM): 0.0066
increase in dead-cell fraction ([9]; 0.3162 µM): 0.0151
increase in dead-cell fraction ([9]; 1 µM): 0.0334
increase in dead-cell fraction ([9]; 3.162 µM): 0.0399

Reference: the supplement of paper PMC9663587
